Test results as given in ChEMBL document CHEMBL1201861, “Genomics of Drug Sensitity in Cancer screening data, Wellcome Trust Sanger Institute”.

Legend:
Experiment in all cases: cells
[1] = test system: A673; type: functional, cell-based, Homo sapiens;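 note: growth inhibition of human A673 cells, read out through a cell viability assay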
Description: SANGER: Inhibition of human A673 cell growth in a cell viability assay.

[2] = test system: SW626; type: functional, cell-based, Homo sapiens;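 note: growth inhibition of SW626 cells, measured with a cell viability assay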
Description: SANGER: Inhibition of human SW626 cell growth in a cell viability assay.

[3] = test system: SK-MEL-28; type: functional, cell-based, Homo sapiens;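 note: growth inhibition of human SK-MEL-28 cells, read out with a cell viability assay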
Description: SANGER: Inhibition of human SK-MEL-28 cell growth in a cell viability assay.

[4] = test system: SW-620; type: functional, cell-based, Homo sapiens;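 note: growth inhibition of human SW-620 cells, measured by a cell viability assay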
Description: SANGER: Inhibition of human SW620 cell growth in a cell viability assay.

[5] = test system: 8505C; type: functional, cell-based, Homo sapiens
Description: SANGER: Inhibition of human 8505C cell growth in a cell viability assay.

[6] = test system: DoTc2-4510; type: functional, cell-based, Homo sapiens
[7] = test system: SK-MEL3; type: functional, cell-based, Homo sapiens, SK-MEL-3;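 note: growth inhibition of human SK-MEL-3 cells, read out with a cell viability assay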
Description: SANGER: Inhibition of human SK-MEL-3 cell growth in a cell viability assay.

[8] = test system: KYSE-450; type: functional, cell-based, Homo sapiens;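 note: cell growth inhibition measured by a viability assay in human KYSE-450 cells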
Description: SANGER: Inhibition of human KYSE-450 cell growth in a cell viability assay.

[9] = test system: MEL-HO; type: functional, cell-based, Homo sapiens
Description: SANGER: Inhibition of human MEL-HO cell growth in a cell viability assay.

[10] = test system: Daoy; type: functional, cell-based, Homo sapiens;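 note: daoy cell growth inhibition, read out as cell viability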
Description: SANGER: Inhibition of human Daoy cell growth in a cell viability assay.

[11] = test system: A-375; type: functional, cell-based, Homo sapiens;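 note: growth inhibition of A375 cells, read out with a cell viability assay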
Description: SANGER: Inhibition of human A375 cell growth in a cell viability assay.

[12] = test system: A-427; type: functional, cell-based, Homo sapiens;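 note: growth inhibition of human A-427 cells, read out by a cell viability assay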
Description: SANGER: Inhibition of human A427 cell growth in a cell viability assay.

[13] = test system: LCLC-97TM1; type: functional, cell-based, Homo sapiens;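 note: cell viability assay measuring growth inhibition of human LCLC-97TM1 cells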
Description: SANGER: Inhibition of human LCLC-97TM1 cell growth in a cell viability assay.

[14] = test system: ESS-1; type: functional, cell-based, Homo sapiens;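 note: growth inhibition of human ESS-1 cells, read out by a cell viability assay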
Description: SANGER: Inhibition of human ESS-1 cell growth in a cell viability assay.

[15] = test system: CHP-212; type: functional, cell-based, Homo sapiens
Description: SANGER: Inhibition of human CHP-212 cell growth in a cell viability assay.

[16] = test system: OAW-28; type: functional, cell-based, Homo sapiens;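 note: growth inhibition of OAW-28 cells, read out with a cell viability assay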
Description: SANGER: Inhibition of human OAW-28 cell growth in a cell viability assay.

[17] = test system: CAKI-1; type: functional, cell-based, Homo sapiens;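 note: growth inhibition of CAKI-1 cells, measured by a cell viability assay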
Description: SANGER: Inhibition of human CAKI-1 cell growth in a cell viability assay.

[18] = test system: KNS-62; type: functional, cell-based, Homo sapiens;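 note: inhibition of cell growth, read out with a cell viability assay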
Description: SANGER: Inhibition of human KNS-62 cell growth in a cell viability assay.

[19] = test system: HCC70; type: functional, cell-based, Homo sapiens;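 note: cell viability assay measuring how strongly the compound suppresses proliferation of HCC70 cells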
Description: SANGER: Inhibition of human HCC70 cell growth in a cell viability assay.

[20] = test system: HuP-T3; type: functional, cell-based, Homo sapiens;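 note: HuP-T3 cell growth inhibition, read out with a cell viability assay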
Description: SANGER: Inhibition of human HuP-T3 cell growth in a cell viability assay.

[21] = test system: H-EMC-SS; type: functional, cell-based, Homo sapiens
Description: SANGER: Inhibition of human H-EMC-SS cell growth in a cell viability assay.

[22] = test system: NCI-H810; type: functional, cell-based, Homo sapiens;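 note: IC50 reflects inhibition of cancer cell line growth, read out with a cell viability assay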
Description: SANGER: Inhibition of human NCI-H810 cell growth in a cell viability assay.

[23] = test system: CAL-33; type: functional, cell-based, Homo sapiens;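 note: growth inhibition of CAL-33 cells, read out with a cell viability assay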
Description: SANGER: Inhibition of human CAL-33 cell growth in a cell viability assay.

[24] = test system: HT55; type: functional, cell-based, Homo sapiens;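 note: cell viability readout measuring growth inhibition of human HT55 cells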
Description: SANGER: Inhibition of human HT55 cell growth in a cell viability assay.

[25] = test system: KYSE-520 cell line; type: functional, cell-based, Homo sapiens;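 note: growth inhibition of human KYSE-520 cells, read out with a viability assay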
Description: SANGER: Inhibition of human KYSE-520 cell growth in a cell viability assay.

[26] = test system: MKN-45; type: functional, cell-based, Homo sapiens;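 note: growth inhibition of human MKN-45 cells, measured with a cell viability assay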
Description: SANGER: Inhibition of human MKN45 cell growth in a cell viability assay.

[27] = test system: NCI-H292; type: functional, cell-based, Homo sapiens;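 note: growth inhibition of NCI-H292 cells, read out with a cell viability assay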
Description: SANGER: Inhibition of human NCI-H292 cell growth in a cell viability assay.

[28] = test system: SK-N-AS; type: functional, cell-based, Homo sapiens;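 note: growth inhibition of human SK-N-AS cells, measured with a cell viability assay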
Description: SANGER: Inhibition of human SK-N-AS cell growth in a cell viability assay.

[29] = test system: BCPAP; type: functional, cell-based, Homo sapiens;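 note: growth inhibition of BCPAP cells, read out in a cell viability assay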
Description: SANGER: Inhibition of human BCPAP cell growth in a cell viability assay.

[30] = test system: SW1088; type: functional, cell-based, Homo sapiens;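 note: growth inhibition of human SW1088 cells, read out by a cell viability assay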
Description: SANGER: Inhibition of human SW1088 cell growth in a cell viability assay.

[31] = test system: CAL-54; type: functional, cell-based, Homo sapiens;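 note: growth inhibition of CAL-54 cells, read out by a viability measurement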
Description: SANGER: Inhibition of human CAL-54 cell growth in a cell viability assay.

[32] = test system: RERF-LC-MS; type: functional, cell-based, Homo sapiens;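 note: growth inhibition of human RERF-LC-MS cells, read out by a cell viability assay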
Description: SANGER: Inhibition of human RERF-LC-MS cell growth in a cell viability assay.

[33] = test system: HTC-C3; type: functional, cell-based, Homo sapiens;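 note: inhibition of cell growth, read out with a cell viability assay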
Description: SANGER: Inhibition of human HTC-C3 cell growth in a cell viability assay.

[34] = test system: NCI-H596; type: functional, cell-based, Homo sapiens;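 note: growth inhibition of NCI-H596 cells, read out with a cell viability assay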
Description: SANGER: Inhibition of human NCI-H596 cell growth in a cell viability assay.

[35] = test system: KOSC-2; type: functional, cell-based, Homo sapiens;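 note: growth inhibition of KOSC-2 cells, read out by a cell viability assay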
Description: SANGER: Inhibition of human KOSC-2 cell growth in a cell viability assay.

[36] = test system: NCI-H522; type: functional, cell-based, Homo sapiens; details: Homo sapiens, NCI-H522;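 note: cell viability assay measuring growth inhibition of human NCI-H522 cells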
Description: SANGER: Inhibition of human NCI-H522 cell growth in a cell viability assay.

CISPLATIN
IC50 ([1]; a673): 2170 nM
IC50 ([2]; sw626): 33100 nM
IC50 ([3]; sk-mel-28): 22200 nM
IC50 ([4]; sw-620): 160000 nM
IC50 ([5]; 8505c): 34600 nM
IC50 ([6]; dotc2-4510): 63600 nM
IC50 ([7]; sk-mel-3): 684000 nM
IC50 ([8]; kyse-450): 72800 nM
IC50 ([9]; mel-ho): 1070 nM
IC50 ([10]; daoy): 1510 nM
IC50 ([11]; a-375): 535000 nM
IC50 ([12]; a-427): 350000 nM
IC50 ([13]; lclc-97tm1): 19800 nM
IC50 ([14]; ess-1): 2540 nM
IC50 ([15]; chp-212): 25500 nM
IC50 ([16]; oaw-28): 22900 nM
IC50 ([17]; caki-1): 7270 nM
IC50 ([18]; kns-62): 14000 nM
IC50 ([19]; hcc70): 9920 nM
IC50 ([20]; hup-t3): 53900 nM
IC50 ([21]; h-emc-ss): 21200 nM
IC50 ([22]; nci-h810): 273000 nM
IC50 ([23]; cal-33): 41300 nM
IC50 ([24]; ht55): 118000 nM
IC50 ([25]; kyse-520): 21800 nM
IC50 ([26]; mkn-45): 28600 nM
IC50 ([27]; nci-h292): 364000 nM
IC50 ([28]; sk-n-as): 38000 nM
IC50 ([29]; bcpap): 228000 nM
IC50 ([30]; sw1088): 9700 nM
IC50 ([31]; cal-54): 12200 nM
IC50 ([32]; rerf-lc-ms): 418000 nM
IC50 ([33]; htc-c3): 4490 nM
IC50 ([34]; nci-h596): 305000 nM
IC50 ([35]; kosc-2): 2910 nM

Cc1cn(-c2cc(NC(=O)c3ccc(C)c(Nc4nccc(-c5cccnc5)n4)c3)cc(C(F)(F)F)c2)cn1 [NILOTINIB]
IC50 ([1]; Homo sapiens, A673): > 2000 nM
IC50 ([2]; Homo sapiens, SW626): > 2000 nM
IC50 ([3]; Homo sapiens, SK-MEL-28): > 2000 nM
IC50 ([4]; Homo sapiens, SW-620): > 2000 nM
IC50 ([5]; Homo sapiens, 8505C): > 2000 nM
IC50 ([6]; Homo sapiens, DoTc2-4510): > 2000 nM
IC50 ([7]; Homo sapiens, SK-MEL3): > 2000 nM
IC50 ([8]; Homo sapiens, KYSE-450): > 2000 nM
IC50 ([9]; Homo sapiens, MEL-HO): > 2000 nM
IC50 ([10]; Homo sapiens, Daoy): > 2000 nM
IC50 ([11]; Homo sapiens, A-375): > 2000 nM
IC50 ([12]; Homo sapiens, A-427): > 2000 nM
IC50 ([13]; Homo sapiens, LCLC-97TM1): > 2000 nM
IC50 ([14]; Homo sapiens, ESS-1): > 2000 nM
IC50 ([15]; Homo sapiens, CHP-212): > 2000 nM
IC50 ([16]; Homo sapiens, OAW-28): > 2000 nM
IC50 ([17]; Homo sapiens, CAKI-1): > 2000 nM
IC50 ([18]; Homo sapiens, KNS-62): > 2000 nM
IC50 ([19]; Homo sapiens, HCC70): > 2000 nM
IC50 ([20]; Homo sapiens, HuP-T3): > 2000 nM
IC50 ([21]; Homo sapiens, H-EMC-SS): > 2000 nM
IC50 ([22]; Homo sapiens, NCI-H810): > 2000 nM
IC50 ([23]; Homo sapiens, CAL-33): > 2000 nM
IC50 ([24]; Homo sapiens, HT55): > 2000 nM
IC50 ([25]; Homo sapiens, KYSE-520): > 2000 nM
IC50 ([26]; Homo sapiens, MKN-45): > 2000 nM
IC50 ([27]; Homo sapiens, NCI-H292): > 2000 nM
IC50 ([28]; Homo sapiens, SK-N-AS): > 2000 nM
IC50 ([29]; Homo sapiens, BCPAP): > 2000 nM
IC50 ([30]; Homo sapiens, SW1088): > 2000 nM
IC50 ([31]; Homo sapiens, CAL-54): > 2000 nM
IC50 ([32]; Homo sapiens, RERF-LC-MS): > 2000 nM
IC50 ([33]; Homo sapiens, HTC-C3): > 2000 nM
IC50 ([34]; Homo sapiens, NCI-H596): > 2000 nM
IC50 ([35]; Homo sapiens, KOSC-2): > 2000 nM

CCN(CC)CCCCNc1ncc2cc(-c3cc(OC)cc(OC)c3)c(NC(=O)NC(C)(C)C)nc2n1 [PD-173074]
IC50 ([1]; Homo sapiens, A673): > 2000 nM
IC50 ([2]; Homo sapiens, SW626): > 2000 nM
IC50 ([3]; Homo sapiens, SK-MEL-28): > 2000 nM
IC50 ([4]; Homo sapiens, SW-620): > 2000 nM
IC50 ([5]; Homo sapiens, 8505C): > 2000 nM
IC50 ([6]; Homo sapiens, DoTc2-4510): > 2000 nM
IC50 ([7]; Homo sapiens, SK-MEL3): > 2000 nM
IC50 ([8]; Homo sapiens, KYSE-450): > 2000 nM
IC50 ([9]; Homo sapiens, MEL-HO): > 2000 nM
IC50 ([10]; Homo sapiens, Daoy): > 2000 nM
IC50 ([11]; Homo sapiens, A-375): > 2000 nM
IC50 ([12]; Homo sapiens, A-427): > 2000 nM
IC50 ([13]; Homo sapiens, LCLC-97TM1): > 2000 nM
IC50 ([14]; Homo sapiens, ESS-1): > 2000 nM
IC50 ([15]; Homo sapiens, CHP-212): > 2000 nM
IC50 ([16]; Homo sapiens, OAW-28): > 2000 nM
IC50 ([17]; Homo sapiens, CAKI-1): > 2000 nM
IC50 ([18]; Homo sapiens, KNS-62): > 2000 nM
IC50 ([19]; Homo sapiens, HCC70): > 2000 nM
IC50 [36]: > 2000 nM
IC50 ([20]; Homo sapiens, HuP-T3): > 2000 nM
IC50 ([21]; Homo sapiens, H-EMC-SS): 347 nM
IC50 ([22]; Homo sapiens, NCI-H810): > 2000 nM
IC50 ([23]; Homo sapiens, CAL-33): > 2000 nM
IC50 ([24]; Homo sapiens, HT55): > 2000 nM
IC50 ([25]; Homo sapiens, KYSE-520): > 2000 nM
IC50 ([26]; Homo sapiens, MKN-45): > 2000 nM
IC50 ([27]; Homo sapiens, NCI-H292): > 2000 nM
IC50 ([28]; Homo sapiens, SK-N-AS): > 2000 nM
IC50 ([29]; Homo sapiens, BCPAP): > 2000 nM
IC50 ([30]; Homo sapiens, SW1088): > 2000 nM
IC50 ([31]; Homo sapiens, CAL-54): > 2000 nM
IC50 ([32]; Homo sapiens, RERF-LC-MS): > 2000 nM
IC50 ([33]; Homo sapiens, HTC-C3): > 2000 nM
IC50 ([34]; Homo sapiens, NCI-H596): > 2000 nM
IC50 ([35]; Homo sapiens, KOSC-2): > 2000 nM
